Data from ChEMBL document CHEMBL5244209, “Antiplasmodial and antimalarial activities of quinolone derivatives: An overview” (Eur J Med Chem, 2018).
In brackets after ≈: the same amount, converted by molar mass.

Columns and labels:
Plasmodium yoelii yoelii = assay: Antimalarial activity against hepatic stage Plasmodium yoelii yoelii 265 BY for 48 hrs with media renew every 24 hrs; type: functional, organism-based
Plasmodium falciparum [1] = assay: Antimalarial activity against blood stage chloroquine-sensitive Plasmodium falciparum NF54-R infected in erythrocytes assessed as reduction in parasite growth preincubated for 72 hrs followed by addition of [3H]Hypoxanthine and measured after 24 hrs by liquid scintillation counting method; type: functional, organism-based; conditions: Erythrocyte
Plasmodium falciparum [2] = assay: Antimalarial activity against chloroquine-sensitive Plasmodium falciparum FCC1 measured after 48 hrs; type: functional, organism-based; conditions: FCC1, 48 h
Plasmodium falciparum [3] = assay: Antimalarial activity against chloroquine-resistant Plasmodium falciparum VNS measured after 48 hrs; type: functional, organism-based
Plasmodium falciparum [4] = assay: Antiplasmodial activity against chloroquine-sensitive Plasmodium falciparum FC measured after 48 hrs; type: functional
Plasmodium falciparum [5] = assay: Antiplasmodial activity against chloroquine-resistant Plasmodium falciparum K1 measured after 48 hrs; type: functional
Plasmodium falciparum [6] = assay: Antiplasmodial activity against chloroquine-sensitive Plasmodium falciparum FC measured after 96 hrs; type: functional
Plasmodium falciparum [7] = assay: Antiplasmodial activity against chloroquine-sensitive Plasmodium falciparum K1 measured after 96 hrs; type: functional
Plasmodium falciparum [8] = assay: Antiplasmodial activity against chloroquine-sensitive Plasmodium falciparum; type: functional, organism-based
Plasmodium falciparum [9] = assay: Antiplasmodial activity against chloroquine-resistant Plasmodium falciparum; type: functional, organism-based
Plasmodium falciparum [10] = assay: Antiplasmodial activity against synchronized Plasmodium falciparum CS2; type: functional, organism-based
Plasmodium falciparum [11] = assay: Antiplasmodial activity against asynchronous Plasmodium falciparum CS2; type: functional, organism-based
Plasmodium falciparum [12] = assay: Antiplasmodial activity against synchronized Plasmodium falciparum 3D7; type: functional, organism-based
Plasmodium falciparum [13] = assay: Antiplasmodial activity against asynchronous Plasmodium falciparum 3D7; type: functional, organism-based
Plasmodium falciparum [14] = assay: Antiplasmodial activity against synchronized Plasmodium falciparum K1; type: functional, organism-based
Plasmodium falciparum [15] = assay: Antiplasmodial activity against asynchronous Plasmodium falciparum K1; type: functional, organism-based
Plasmodium falciparum [16] = assay: Antimalarial activity against blood stage chloroquine-sensitive Plasmodium falciparum 3D7 infected in erythrocytes assessed as reduction in parasite growth preincubated for 72 hrs followed by addition of [3H]Hypoxanthine and measured after 24 hrs by liquid scintillation counting method; type: functional, organism-based; conditions: 3D7, Erythrocyte
Plasmodium falciparum [17] = assay: Antiplasmodial activity against chloroquine-sensitive Plasmodium falciparum 3D7; type: functional, organism-based
Plasmodium falciparum [18] = assay: Antiplasmodial activity against chloroquine-resistant Plasmodium falciparum W2; type: functional, organism-based
Plasmodium falciparum [19] = assay: Antiplasmodial activity against chloroquine-resistant Plasmodium falciparum Palo Alto; type: functional, organism-based
Plasmodium falciparum [20] = assay: Antiplasmodial activity against chloroquine-resistant Plasmodium falciparum FCR3; type: functional, organism-based
Plasmodium falciparum [21] = assay: Antimalarial activity against Plasmodium falciparum Dd2; type: functional, organism-based
Plasmodium falciparum [22] = assay: Antiplasmodial activity against chloroquine-resistant Plasmodium falciparum Fcb1; type: functional, organism-based
Plasmodium falciparum [23] = assay: Antiplasmodial activity against chloroquine-resistant Plasmodium falciparum Bres1; type: functional, organism-based

| SMILES | IC50 (Plasmodium yoelii yoelii) [µg/mL] | IC50 (Plasmodium falciparum [1]) [µg/mL] | IC50 (Plasmodium falciparum [2]) [µM] | IC50 (Plasmodium falciparum [3]) [µM] | IC50 (Plasmodium falciparum [8]) [µg/mL] | IC50 (Plasmodium falciparum [9]) [µg/mL] | IC50 (Plasmodium falciparum [10]) [µM] | IC50 (Plasmodium falciparum [11]) [µM] | IC50 (Plasmodium falciparum [12]) [µM] | IC50 (Plasmodium falciparum [13]) [µM] | IC50 (Plasmodium falciparum [14]) [µM] | IC50 (Plasmodium falciparum [15]) [µM] | IC50 (Plasmodium falciparum [16]) [µg/mL] | IC50 (Plasmodium falciparum [17]) [µM] | IC50 (Plasmodium falciparum [18]) [µM] | IC50 (Plasmodium falciparum [19]) [µM] | IC50 (Plasmodium falciparum [20]) [µM] | other results |
| --- | --- | --- | --- | --- | --- | --- | --- | --- | --- | --- | --- | --- | --- | --- | --- | --- | --- | --- |
| O=C(O)c1cn(C2CC2)c2cc(N3CCNCC3)c(F)cc2c1=O [CIPROFLOXACIN] | 44 (≈ 133 µM) | 3.4 (≈ 10.3 µM) | 260 | 380 | 6.38 (≈ 19.3 µM) | 6.38 (≈ 19.3 µM) | 20 | 24 | 31 | 31 | 32 | 38 | – | – | – | – | – | MIC (Plasmodium falciparum [4]): 28.1 µg/mL (≈ 84.8 µM); MIC (Plasmodium falciparum [5]): 27.2 µg/mL (≈ 82.1 µM); MIC (Plasmodium falciparum [6]): 2.8 µg/mL (≈ 8.45 µM); MIC (Plasmodium falciparum [7]): 4.4 µg/mL (≈ 13.3 µM) |
| CCn1cc(C(=O)O)c(=O)c2cc(F)c(N3CCNCC3)cc21 [NORFLOXACIN] | 17.8 (≈ 55.7 µM) | 6.7 (≈ 21 µM) | 620 | 510 | 11.2 (≈ 35.2 µM) | 11.2 (≈ 35.2 µM) | 59 | 55 | 55 | 66 | 67 | 54 | 17.2 (≈ 53.9 µM) | 55.3 | 74.6 | 54.1 | 58.6 | – |
| COc1ccc2c(=O)c(-c3ccc(Oc4ccc(OC(F)(F)F)cc4)cc3)c(C)[nH]c2c1 | – | – | – | – | – | – | – | – | – | – | – | – | – | – | – | – | – | IC50 (Plasmodium falciparum [21]): 0.00385 µM |
| CC(C)=CCC/C(C)=C/CC/C(C)=C/Cc1c(C)[nH]c2ccccc2c1=O [AURACHIN D] | – | – | – | – | – | – | – | – | – | – | – | – | – | – | – | – | – | IC50 (Plasmodium falciparum [22]): 0.04 µg/mL (≈ 0.11 µM) |
| CC1COc2c(N3CCN(C)CC3)c(F)cc3c(=O)c(C(=O)O)cn1c23 (configuration not stated) [OFLOXACIN] | 64 (≈ 177 µM) | 58.6 (≈ 162 µM) | 1720 | 1770 | 22.3 (≈ 61.7 µM) | 22.3 (≈ 61.7 µM) | – | – | – | – | – | – | 113 (≈ 313 µM) | 152 | 112 | 114 | 158 | IC50 (Plasmodium falciparum [23]): 195 µM |
